Laboratory results taken from patent publication US9273033B2, “Substituted pyridone derivatives as PDE10 inhibitors” (Merck Sharp & Dohme Corp., priority 2012, dated 2016).

Molecular target: human PDE10A2 (Homo sapiens (Human), UniProt Q9Y233)
Experiment: PDE10 fluorescence polarization (IMAP FP) inhibition assay
Type: biochemical
Details: human PDE10A2, FAM-labeled cAMP substrate, read-out: PDE10A Ki
Procedure, shortened: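 Cytoplasmic lysate of AD293 cells transiently expressing human PDE10A2 (diluted to ~20% substrate conversion) incubated 30 min at room temperature with 50 nM FAM-cAMP in Tris pH 7.2 buffer with MgCl2, DTT. Activity read by IMAP fluorescence polarization. 0% inhibition set with 1% DMSO, 100% with reference PDE10 inhibitor.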

Chain of human PDE10A2 (Q9Y233 267-1055): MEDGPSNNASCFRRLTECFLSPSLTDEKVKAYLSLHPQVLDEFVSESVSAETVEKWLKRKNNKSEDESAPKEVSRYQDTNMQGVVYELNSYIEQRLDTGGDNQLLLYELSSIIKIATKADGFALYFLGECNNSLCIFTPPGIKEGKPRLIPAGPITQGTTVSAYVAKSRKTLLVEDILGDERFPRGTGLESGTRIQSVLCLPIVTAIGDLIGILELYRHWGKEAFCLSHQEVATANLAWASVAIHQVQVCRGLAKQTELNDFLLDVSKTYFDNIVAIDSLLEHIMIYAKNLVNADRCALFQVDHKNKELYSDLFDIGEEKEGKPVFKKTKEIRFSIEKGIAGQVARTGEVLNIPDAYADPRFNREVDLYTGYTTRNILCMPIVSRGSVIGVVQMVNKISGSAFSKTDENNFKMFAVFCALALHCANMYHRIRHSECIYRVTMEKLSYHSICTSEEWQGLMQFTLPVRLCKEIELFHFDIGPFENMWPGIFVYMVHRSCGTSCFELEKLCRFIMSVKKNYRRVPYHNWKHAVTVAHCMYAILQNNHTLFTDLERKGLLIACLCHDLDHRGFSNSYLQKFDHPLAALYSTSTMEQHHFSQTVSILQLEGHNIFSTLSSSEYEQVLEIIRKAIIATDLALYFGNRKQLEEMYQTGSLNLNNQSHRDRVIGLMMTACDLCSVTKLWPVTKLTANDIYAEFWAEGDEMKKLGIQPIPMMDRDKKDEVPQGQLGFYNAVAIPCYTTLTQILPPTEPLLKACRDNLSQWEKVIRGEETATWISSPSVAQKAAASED

| SMILES | Ki [nM] |
| --- | --- |
| COc1ccc([C@H]2C[C@@H]2COc2nc(C)ncc2-c2ccn(C)c(=O)c2C#N)nc1 [Example 104, 4-(4-(((1S,2S)-2-(5-methoxypyridin-2-yl)cyclopropyl)methoxy)-2-methylpyrimidin-5-yl)-1-methyl-2-oxo-1,2-dihydropyridine-3-carbonitrile] | 8.16 |
| Cc1ccc([C@H]2C[C@@H]2COc2nc(C)ncc2-c2ccn(CC(F)(F)F)c(=O)c2)nc1 [Example 105, 4-(2-methyl-4-(((1S,2S)-2-(5-methylpyridin-2-yl)cyclopropyl)methoxy)pyrimidin-5-yl)-1-(2,2,2-trifluoroethyl)pyridin-2(1H)-one] | 0.74 |
| CCOC(=O)c1cn(C)c(=O)cc1-c1cnc(C)nc1OC[C@H]1C[C@@H]1c1ccc(OC)cn1 [Example 108, ethyl 4-(4-(((1S,2S)-2-(5-methoxypyridin-2-yl)cyclopropyl)methoxy)-2-methylpyrimidin-5-yl)-1-methyl-6-oxo-1,6-dihydropyridine-3-carboxylate] | 100 |
| COc1ccc([C@H]2C[C@@H]2COc2nc(C)ncc2-c2ccn(CCC#N)c(=O)c2)nc1 [Example 112, 3-(4-(4-(((1S,2S)-2-(5-methoxypyridin-2-yl)cyclopropyl)methoxy)-2-methylpyrimidin-5-yl)-2-oxopyridin-1(2H)-yl)propanenitrile] | 0.944 |
| COc1ccc([C@H]2C[C@@H]2COc2nc(C)ncc2-c2cc(C)n(C)c(=O)c2)nc1 [Example 113, 4-(4-(((1S,2S)-2-(5-methoxypyridin-2-yl)cyclopropyl)methoxy)-2-methylpyrimidin-5-yl)-1,6-dimethylpyridin-2(1H)-one] | 0.8 |
| COc1ccc([C@H]2C[C@@H]2COc2nc(C)ncc2-c2ccn(C)c(=O)c2SC)nc1 [Example 115, 4-(4-(((1S,2S)-2-(5-methoxypyridin-2-yl)cyclopropyl)methoxy)-2-methylpyrimidin-5-yl)-1-methyl-3-(methylthio)pyridin-2(1H)-one] | 18 |
| COCCn1ccc(-c2cnc(C)nc2OC[C@H]2C[C@@H]2c2ccc(OC)cn2)cc1=O [Example 118, 1-(2-methoxyethyl)-4-(4-(((1S,2S)-2-(5-methoxypyridin-2-yl)cyclopropyl)methoxy)-2-methylpyrimidin-5-yl)pyridin-2(1H)-one] | 0.553 |
| COc1ccc([C@H]2C[C@@H]2COc2nc(C)ncc2-c2ccn(CC(F)(F)F)c(=O)c2)nc1 [Example 121, 4-(4-(((1S,2S)-2-(5-methoxypyridin-2-yl)cyclopropyl)methoxy)-2-methylpyrimidin-5-yl)-1-(2,2,2-trifluoroethyl)pyridin-2(1H)-one] | 0.299 |
| COC(=O)Cn1ccc(-c2cnc(C)nc2OC[C@H]2C[C@@H]2c2ccc(OC)cn2)cc1=O [Example 124, methyl 2-(4-(4-(((1S,2S)-2-(5-methoxypyridin-2-yl)cyclopropyl)methoxy)-2-methylpyrimidin-5-yl)-2-oxopyridin-1(2H)-yl)acetate] | 0.284 |
| COC(=O)Cn1ccc(-c2cnc(C)nc2OC[C@H]2C[C@@H]2c2ccc(C)cn2)cc1=O [Example 129, methyl 2-(4-(2-methyl-4-(((1S,2S)-2-(5-methylpyridin-2-yl)cyclopropyl)methoxy)pyrimidin-5-yl)-2-oxopyridin-1(2H)-yl)acetate] | 0.394 |
| COc1ccc([C@H]2C[C@@H]2COc2nc(C)ncc2-c2ccn(CC(F)F)c(=O)c2)nc1 [Example 130, 1-(2,2-difluoroethyl)-4-(4-(((1S,2S)-2-(5-methoxypyridin-2-yl)cyclopropyl)methoxy)-2-methylpyrimidin-5-yl)pyridin-2(1H)-one] | 0.386 |
| COc1ccc([C@H]2C[C@@H]2COc2nc(C)ncc2-c2cc(=O)n(C)cc2C2CC2)nc1 [Example 132, 5-cyclopropyl-4-(4-(((1S,2S)-2-(5-methoxypyridin-2-yl)cyclopropyl)methoxy)-2-methylpyrimidin-5-yl)-1-methylpyridin-2(1H)-one] | 0.583 |
| COc1ccc([C@H]2C[C@@H]2COc2nc(C)ncc2-c2ccn(CC(=O)O)c(=O)c2)nc1 [Example 134, 2-(4-(4-(((1S,2S)-2-(5-methoxypyridin-2-yl)cyclopropyl)methoxy)-2-methylpyrimidin-5-yl)-2-oxopyridin-1(2H)-yl)acetic acid] | 9.85 |

Results, then the compound that gave them:

| Ki [nM] | SMILES |
| --- | --- |
| 1.81 | Cc1ccc([C@H]2C[C@@H]2COc2nc(C)ncc2-c2ccn(CC(F)F)c(=O)c2)nc1 [Example 106, 1-(2,2-difluoroethyl)-4-(2-methyl-4-(((1S,2S)-2-(5-methylpyridin-2-yl)cyclopropyl)methoxy)pyrimidin-5-yl)pyridin-2(1H)-one] |
| 14.7 | Cc1ncc(-c2ccn(C)c(=O)c2)c(OC[C@H]2C[C@@H]2c2ccc(Cl)cn2)n1 [Example 107, 4-(4-(((1S,2S)-2-(5-chloropyridin-2-yl)cyclopropyl)methoxy)-2-methylpyrimidin-5-yl)-1-methylpyridin-2(1H)-one] |
| 0.441 | COc1ccc([C@H]2C[C@@H]2COc2nc(C)ncc2-c2ccn(CC#N)c(=O)c2)nc1 [Example 111, 2-(4-(4-(((1S,2S)-2-(5-methoxypyridin-2-yl)cyclopropyl)methoxy)-2-methylpyrimidin-5-yl)-2-oxopyridin-1(2H)-yl)acetonitrile] |
| 0.378 | Cc1ncc(-c2ccn(C)c(=O)c2)c(OC[C@H]2C[C@@H]2c2ccc3c(n2)CCC3)n1 [Example 114, 4-(4-(((1S,2S)-2-(6,7-dihydro-5H-cyclopenta[b]pyridin-2-yl)cyclopropyl)methoxy)-2-methylpyrimidin-5-yl)-1-methylpyridin-2(1H)-one] |
| 1.83 | Cc1ccc([C@H]2C[C@@H]2COc2nc(C)ncc2-c2ccn(C(F)F)c(=O)c2)nc1 [Example 116, 1-(difluoromethyl)-4-(2-methyl-4-(((1S,2S)-2-(5-methylpyridin-2-yl)cyclopropyl)methoxy)pyrimidin-5-yl)pyridin-2(1H)-one] |
| 1.93 | COc1ccc([C@H]2C[C@@H]2COc2nc(C)ncc2-c2ccn(C(F)F)c(=O)c2)nc1 [Example 117, 1-(difluoromethyl)-4-(4-(((1S,2S)-2-(5-methoxypyridin-2-yl)cyclopropyl)methoxy)-2-methylpyrimidin-5-yl)pyridin-2(1H)-one] |
| 1.58 | Cc1ccc([C@H]2C[C@@H]2COc2nc(C)ncc2-c2ccn(CCC#N)c(=O)c2)nc1 [Example 119, 3-(4-(2-methyl-4-(((1S,2S)-2-(5-methylpyridin-2-yl)cyclopropyl)methoxy)pyrimidin-5-yl)-2-oxopyridin-1(2H)-yl)propanenitrile] |
| 1.06 | Cc1ccc([C@H]2C[C@@H]2COc2nc(C)ncc2-c2ccn(CC#N)c(=O)c2)nc1 [Example 120, 2-(4-(2-methyl-4-(((1S,2S)-2-(5-methylpyridin-2-yl)cyclopropyl)methoxy)pyrimidin-5-yl)-2-oxopyridin-1(2H)-yl)acetonitrile] |
| 0.458 | C=CCn1ccc(-c2cnc(C)nc2OC[C@H]2C[C@@H]2c2ccc(OC)cn2)cc1=O [Example 122, 1-allyl-4-(4-(((1S,2S)-2-(5-methoxypyridin-2-yl)cyclopropyl)methoxy)-2-methylpyrimidin-5-yl)pyridin-2(1H)-one] |
| 0.508 | C=CCn1ccc(-c2cnc(C)nc2OC[C@H]2C[C@@H]2c2ccc(C)cn2)cc1=O [Example 123, 1-allyl-4-(2-methyl-4-(((1S,2S)-2-(5-methylpyridin-2-yl)cyclopropyl)methoxy)pyrimidin-5-yl)pyridin-2(1H)-one] |
| 1.66 | [2H]C([2H])([2H])n1ccc(-c2cnc(C)nc2OC[C@H]2C[C@@H]2c2ccc(C)cn2)cc1=O [Example 125, 1-methyl-4-(2-methyl-4-(((1S,2S)-2-(5-methylpyridin-2-yl)cyclopropyl)methoxy)pyrimidin-5-yl)pyridin-2(1H)-one] |
| 1.01 | Cc1ccc([C@H]2C[C@@H]2COc2nc(C)ncc2-c2ccn(CCO)c(=O)c2)nc1 [Example 126, 1-(2-hydroxyethyl)-4-(2-methyl-4-(((1S,2S)-2-(5-methylpyridin-2-yl)cyclopropyl)methoxy)pyrimidin-5-yr)pyridin-2(1H)-one] |
| 0.64 | COc1ccc([C@H]2C[C@@H]2COc2nc(C)ncc2-c2ccn(CCO)c(=O)c2)nc1 [Example 127, 1-(2-hydroxyethyl)-4-(4-(((1S,2S)-2-(5-methoxypyridin-2-yl)cyclopropyl)methoxy)-2-methylpyrimidin-5-yl)pyridin-2(1H)-one] |
| 1.54 | COc1ccc([C@H]2C[C@@H]2COc2nc(C)ncc2-c2ccn(C)c(=O)c2)nc1 [Example 128, 4-(4-(((1S,2S)-2-(5-methoxypyridin-2-yl)cyclopropyl)methoxy)-2-methylpyrimidin-5-yl)-1-methylpyridin-2(1H)-one] |
| 0.033 | Cc1ncc(-c2cc(=O)n(C)cc2C)c(OC[C@H]2C[C@@H]2c2ccc3c(n2)CCC3)n1 [Example 131, 4-(4-(((1S,2S)-2-(6,7-dihydro-5H-cyclopenta[b]pyridin-2-yl)cyclopropyl)methoxy)-2-methylpyrimidin-5-yl)-l,5-dimethylpyridin-2(1H)-one] |
| 0.935 | Cc1ccc([C@H]2C[C@@H]2COc2nc(C)ncc2-c2ccn(C3CC3)c(=O)c2)nc1 [Example 133, 1-cyclopropyl-4-(2-methyl-4-(((1S,2S)-2-(5-methylpyridin-2-yl)cyclopropyl)methoxy)pyrimidin-5-yl)pyridin-2(1H)-one] |
| 6.31 | Cc1ccc([C@H]2C[C@@H]2COc2nc(C)ncc2-c2cnn(C)c(=O)c2)nc1 [Example 135, 2-methyl-5-(2-methyl-4-(((1S,2S)-2-(5-methylpyridin-2-yl)cyclopropyl)methoxy)pyrimidin-5-yl)pyridazin-3(2H)-one] |
| 5.74 | COc1ccc([C@H]2C[C@@H]2COc2nc(C)ncc2-c2cnn(C)c(=O)c2)nc1 [Example 136, 5-(4-(((1S,2S)-2-(5-methoxypyridin-2-yl)cyclopropyl)methoxy)-2-methylpyrimidin-5-yl)-2-methylpyridazin-3(2H)-one] |
